Data set [1] addresses T1, Human Adenosine A2a Receptor (Homo sapiens, UniProt P29274).
T1 construct: host or cells: CHO
Kind of data set: Human adenosine A2a receptor calcium flow detection experiment (FLIPR, Fluo-4, NECA agonist). It is filed as cell-based. As to conditions: A2a stable CHO cell line, antagonist mode vs NECA at EC80. The procedure: Human Adenosine A2a Receptor Calcium Flow Detection Experiment
A2a stable cell line was constructed by Shanghai Wuxi Apptec, and the host cell was CHO.
Fluo-4 Direct kit (Invitrogen, article number: F10471). After the fluorescence detection reagent (specifically binding to calcium ions and causing an increase of fluorescence signal) in the kit was incubated with the cells for an appropriate time, the compound was added to stimulate the cells and induced changes in intracellular calcium flow, thus causing the changes in fluorescence signal, which can reflect the intensity of the agonistic or inhibiting activity of the compounds.
F12+10% fetal bovine serum+geneticin 300 μg/mL+blasticidin 2 μg/mL
Hanks balanced salt buffer (Invitrogen)+20 mM HEPES, which was prepared before each use
The compounds to be tested were dissolved in DMSO to prepare a 10 mM mother liquor. The test compound was diluted to 0.2 mM with DMSO, and the reference compound CGS-15943 was diluted to 0.015 mM with DMSO. Then a 10-point 3-fold serial dilution was performed with ECHO, then 900 nL of the dilutions was transferred to a compound plate (Greiner-781280), and 30 μL of the compound dilution buffer was added. The final initial concentration of the compounds to be tested was 1 μM and that of CGS-15943 was 0.075 μM.
Frozen A2A cells were suspended to 1×10^6 cells/mL with the culture medium after resuscitation, seeded with 20 μL/well into a 384-well polylysine coated cell plate (Greiner-781946), then incubated under 5% CO2 at 37° C. overnight.
The cell plate prepared the day before was taken out from the incubator, 20 μL 2×Fluo-4 Direct™ buffer was added into each cell, then incubated under 5% CO2 at 37° C. in an incubator for 50 minutes, and was allowed to stand at room temperature for 10 minutes.
Dilution of the agonist NECA: NECA with an initial concentration of 0.15 mM was 3-fold serially diluted with Echo to prepare 10 dilutions, and then 900 nL of the dilutions was transferred to the corresponding compound plate; then 30 μL of the compound dilution buffer was added into the corresponding compound plate. The final initial concentration was 750 nM.
FLIPR instrument and software were performed according to the set program, 10 μL of the compound dilution buffer was added into the cell plate, and the fluorescence signal was read. 10 μL of the agonist reference compound with a predetermined concentration was added to the cell plate and the fluorescence signal was read. After reading, the data were exported by “Max-Min” and “Read 90 to Maximum allowed” methods in the software, the EC80 on A2A cell line was calculated, and 6×EC80 concentration of agonist was prepared. The agonist reference compound with a concentration of 6×EC80 was prepared with buffer salt solution, and 30 μL/well was aliquoted into the corresponding compound plate for later use.
FLIPR instrument and software were performed according to the set program, 10 μL of test compounds and reference compound with a predetermined concentration was added into the cell plate, and the fluorescence signal was read. 10 μL of the agonist reference compound with a concentration of 6×EC80 was added into the cell plate and the fluorescence signal was read. For the agonist detection of the compounds, the data were exported by “Max-Min” and “Read 1 to 90” methods in the software. For the antagonist detection of the compounds, the data were exported by “Max-Min” and “Read 90 to Maximum allowed” methods in the software. The data were analyzed by GraphPad Prism 5.0 and the IC50 value of the test compounds was calculated.

The nature of data set [2]: Pharmacokinetic evaluation after single intravenous injection and single oral administration in mice. The following applies: mouse, female Balb/C mice, plasma, single IV / single PO study; for bioavailability: read-out: Bioavailability F; for clearance: read-out: Clearance rate; for AUC: read-out: Concentration integral AUC; for half-life: read-out: Half-life T1/2 (converted). It is filed as in vivo. How it is done:
Experimental materials: Balb/C mice (female, 15-30 g, 7-9 weeks old, Shanghai Linchang) were used.
Experimental method: The pharmacokinetic characteristics of the compound after intravenous injection and oral administration were tested on rodents by standard scheme, in the experiment, the candidate compounds were prepared into clear solutions and administrated to mice by single intravenous injection and single oral administration. Intravenous injection (IV) menstruum was a mixed solvent of 5% DMSO/5% polyethylene glycol hydroxystearate/90% water, and oral (PO) menstruum was a mixed solvent of 1% Tween 80, 9% PEG400 and 90% water (pH=3). The whole blood sample within 48 hours was collected, centrifuged at 3000 g at 4° C. for 15 minutes, and the supernatant was separated to obtain the plasma sample. An acetonitrile solution containing internal standard with a volume of 20 times that of the plasma sample was added to precipitate protein, the supernatant was centrifuged and an equal volume of water was added, then the supernatant was taken for injection. The blood drug concentration was quantitatively analyzed by LC-MS/MS analysis method, and the pharmacokinetic parameters such as peak concentration, peak time, clearance rate, half-life, area under the drug concentration-time curve, bioavailability, etc. were calculated.

Each structure is given as a SMILES string.

T1 sequence (P29274 whole entry): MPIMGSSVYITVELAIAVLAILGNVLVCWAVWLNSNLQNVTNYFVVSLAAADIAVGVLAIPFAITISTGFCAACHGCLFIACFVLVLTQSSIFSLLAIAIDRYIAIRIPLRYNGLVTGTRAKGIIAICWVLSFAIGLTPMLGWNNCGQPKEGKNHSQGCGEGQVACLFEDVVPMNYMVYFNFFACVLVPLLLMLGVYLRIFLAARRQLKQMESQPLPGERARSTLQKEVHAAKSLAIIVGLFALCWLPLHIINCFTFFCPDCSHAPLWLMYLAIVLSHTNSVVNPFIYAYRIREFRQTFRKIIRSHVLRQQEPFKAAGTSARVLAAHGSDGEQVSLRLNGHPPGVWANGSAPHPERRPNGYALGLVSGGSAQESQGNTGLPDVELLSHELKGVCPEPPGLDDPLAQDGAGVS

Take `Cc1cc(-c2c(-c3ccc(F)cc3)nc(N)c3nccnc23)cc(C)n1` [Embodiment 1]: in data set [1], the 50% inhibitory concentration (IC50) (commonly the concentration needed to halve the response being measured) is 4.77 nM. In data set [2], the bioavailability (usually dose-corrected exposure relative to a reference, in per cent) was 57.6%; the clearance turned out to be 16.5 mL/min/kg; the AUC was found to be 16.7 µM·h; the half-life was 36 min.
Turning to `Cc1cc(-c2c(-c3ccc(F)cc3)nc(N)c3nccnc23)cc(Cl)n1` [Embodiment 2], the IC50 in data set [1] came to 1.73 nM. In addition, in data set [2], the bioavailability was 76.2%, the clearance came out at 17.1 mL/min/kg, the AUC worked out at 20.3 µM·h and the half-life is 46.8 min.
Turning to `Nc1nc(-c2ccc(F)cc2)c(-c2cc(Cl)nc(C(F)(F)F)c2)c2nccnc12` [Embodiment 3], the IC50 in data set [1] amounted to 9.46 nM. For the same molecule, in data set [2], the bioavailability is 69%, the clearance was determined as 18.1 mL/min/kg, the AUC stood at 15.7 µM·h and the half-life is 83.4 min.
In the case of `Nc1nc(-c2ccc(F)cc2)c(-c2ccc3ncccc3c2)c2nccnc12` [Embodiment 4], the IC50 in data set [1] was 0.92 nM.
With `Nc1nc(-c2ccc(F)cc2)c(-c2ccc3nccnc3c2)c2nccnc12` [Embodiment 5], the IC50 in data set [1] stood at 27.8 nM.
Regarding `Nc1nc(-c2ccc(F)cc2)c(-c2ccc3ncnn3c2)c2nccnc12` [Embodiment 6], the IC50 in data set [1] was 1.14 nM. Also, in data set [2], the clearance was 5.87 mL/min/kg, the AUC was determined as 24.1 µM·h and the half-life is 49.2 min.
For the molecule `Nc1nc(-c2ccc(F)cc2)c(-c2ccn3ncnc3c2)c2nccnc12` [Embodiment 7], the IC50 in data set [1] stood at 31.4 nM.
`Nc1nc(-c2ccc(F)cc2)c(-c2ccc3c(c2)CCCN3)c2nccnc12` [Embodiment 8]: in data set [1], the IC50 amounted to 26.8 nM.
`Nc1nc(-c2ccc(F)cc2)c(-c2ccc3nncn3c2)c2nccnc12` [Embodiment 9]: in data set [1], the IC50 stood at 15.6 nM.
On the same count and under the same terms, to `Cc1cc(-c2c(-c3ccc(F)cc3)nc(N)c3nccnc23)cc(C(F)(F)F)n1` [Embodiment 10] belongs 9.2 nM; to `Cc1cc(-c2c(-c3ccc(F)cc3)nc(N)c3cccnc23)cc(Cl)n1` [Embodiment 11], 1.79 nM.
Take `Nc1nc(-c2ccc(F)cc2)c(-c2ccc3ncnn3c2)c2ncccc12` [Embodiment 12]: in data set [1], the IC50 was found to be 1.56 nM. In data set [2], the bioavailability was determined as 95.4%, the clearance came to 1.72 mL/min/kg, the AUC amounted to 259 µM·h and the half-life is 197 min.
For the molecule `Nc1nc(-c2ccc(F)cc2)c(-c2ccc3nnccc3c2)c2nccnc12` [Embodiment 13], in data set [1], the IC50 was 9.4 nM.
For `Nc1nc(-c2ccc(F)cc2)c(-c2ccc3ncncc3c2)c2nccnc12` [Embodiment 14], the IC50 in data set [1] amounted to 0.76 nM.
Regarding `Cc1cc(-c2c(-c3ccc(Cl)cc3)nc(N)c3nccnc23)cc(Cl)n1` [Embodiment 15], the IC50 in data set [1] stood at 3.84 nM.
For the molecule `Nc1ncc2cc(-c3c(-c4ccc(F)cc4)nc(N)c4nccnc34)ccc2n1` [Embodiment 16], the IC50 in data set [1] was found to be 6.1 nM.
In the case of `Nc1nc(-c2ccc(F)cc2)c(-c2cc(F)c3ncccc3c2)c2nccnc12` [Embodiment 17], in data set [1], the half-inhibitory concentration (IC50) was 0.8 nM.
Regarding `Nc1nc(-c2ccc(F)cc2)c(-c2ccc3cnccc3c2)c2nccnc12` [Embodiment 18], the IC50 in data set [1] was determined as 78.8 nM.
In the case of `Nc1nc(-c2ccc(F)cc2)c(-c2ccc3nccn3c2)c2nccnc12` [Embodiment 19], the IC50 in data set [1] stood at 0.54 nM.
Consider `Nc1nc(-c2ccc(F)cc2)c(-c2ccc3[nH]ncc3c2)c2nccnc12` [Embodiment 20], for which, in data set [1], the IC50 was found to be 3.32 nM.
Consider `Nc1nc(-c2ccc(F)cc2)c(-c2cc(Cl)c3[nH]ncc3c2)c2nccnc12` [Embodiment 21], for which the IC50 in data set [1] was 0.82 nM.
Consider `Nc1nc(-c2ccc(F)cc2)c(-c2ccc3[nH]nc(Cl)c3c2)c2nccnc12` [Embodiment 22], for which, in data set [1], the IC50 is 38 nM.
Take `Nc1nc(-c2ccc(F)cc2)c(-c2ccc3ncsc3c2)c2nccnc12` [Embodiment 23]: the IC50 in data set [1] was 0.95 nM.
Consider `Cc1cc(-c2c(-c3ccc(F)cc3)nc(N)c3ncccc23)cc(Cl)n1` [Embodiment 24], for which the IC50 in data set [1] worked out at 5.52 nM.
Turning to `Cc1cc(-c2c(-c3ccc(F)cc3)nc(N)c3cncnc23)cc(Cl)n1` [Embodiment 25], the IC50 in data set [1] amounted to 0.89 nM.
Still for that read-out and setting: to `Nc1nc(-c2ccc(F)cc2)c(-c2cc(Cl)c3ncccc3c2)c2nccnc12` [Embodiment 26] belongs 0.92 nM; to `Nc1nc(-c2ccccc2)c(-c2ccc3ncnn3c2)c2ncccc12` [Embodiment 27], 0.56 nM; to `Cc1cc(-c2c(-c3ccc(C)o3)nc(N)c3nccnc23)cc(Cl)n1` [Embodiment 28], 1.03 nM.
Regarding `Cn1ccc(-c2nc(N)c3nccnc3c2-c2ccc3ncnn3c2)n1` [Embodiment 29], the IC50 in data set [1] came to 3.18 nM.
In the case of `Nc1nc(-c2ccc(Cl)o2)c(-c2ccc3ncnn3c2)c2nccnc12` [Embodiment 30], in data set [1], the IC50 was 0.35 nM.
Turning to `Cc1ccc(-c2nc(N)c3nccnc3c2-c2ccc3ncnn3c2)o1` [Embodiment 31], the IC50 in data set [1] was found to be 0.58 nM.
Take `Nc1nc(-c2ccc(Cl)s2)c(-c2ccc3ncnn3c2)c2nccnc12` [Embodiment 32]: the IC50 in data set [1] was found to be 1.8 nM.
In the case of `Cc1cc(-c2c(-c3ccc(Cl)s3)nc(N)c3nccnc23)cc(Cl)n1` [Embodiment 33], the IC50 in data set [1] is 24 nM.
Still for that read-out and setting: to `Nc1nc(-c2ccc(F)cc2)c(-c2cc(Cl)c3ncnn3c2)c2nccnc12` [Embodiment 34] belongs 1.04 nM.
